From patent publication US20260083704A1, “LXR MODULATORS WITH BICYCLIC CORE MOIETY FOR TREATING DYSLIPIDEMIAS” (OrsoBio, Inc., priority 2022, published 2026) come the findings set out here.

Each structure is given as a SMILES string.

Test [1] has as its target T1, GST-LXRβ ligand-binding domain (Homo sapiens, UniProt P55055).
T1 construct: amino acids 156-461; NP009052; made in house; host or cells: E. coli
T1 sequence (P55055 156-460 limits assumed): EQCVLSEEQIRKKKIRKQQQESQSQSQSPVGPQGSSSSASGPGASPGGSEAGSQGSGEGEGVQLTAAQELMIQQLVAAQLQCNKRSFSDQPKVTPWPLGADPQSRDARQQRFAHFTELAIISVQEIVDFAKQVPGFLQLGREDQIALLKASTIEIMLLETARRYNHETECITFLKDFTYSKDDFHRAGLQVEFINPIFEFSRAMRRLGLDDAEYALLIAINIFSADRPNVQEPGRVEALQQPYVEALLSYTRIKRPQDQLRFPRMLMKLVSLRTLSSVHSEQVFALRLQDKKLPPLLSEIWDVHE
The test can be described thus: TR-FRETβ activity assay (NCoA3 coactivator peptide recruitment). The settings on record: 1 μM 24(S)-25-epoxycholesterol prestimulation. It is filed as biochemical. Here is the method:
Recombinant GST-LXRβ ligand-binding domain (LBD; amino acids 156-461; NP009052; SEQ ID NO:4) was expressed in E. coli and purified via gluthatione-sepharose affinity chromatography. N-terminally biotinylated NCoA3 coactivator peptide (SEQ ID NO:7) was chemically synthesized (Eurogentec). Assays were done in 384 well format (final assay volume of 25 μL/well) in a Tris/HCl buffer (pH 6.8) containing KCl, bovine serum albumin, Triton-X-100 and 1 μM 24(S)-25-epoxycholesterol as LXR-prestimulating agonist. Assay buffer was provided and test articles (potential LXR inverse agonists) were titrated to yield final assay concentrations of 50 μM, 16.7 μM, 5.6 μM, 1.9 μM, 0.6 μM, 0.2 μM, 0.07 μM, 0.02 μM, 0.007 μM, 0.002 μM with one vehicle control. Finally, a detection mix was added containing anti GST-Tb cryptate (CisBio; 610SAXLB) and Streptavidin-XL665 (CisBio; 610SAXLB) as fluorescent donor and acceptor, respectively, as well as the coactivator peptide and LXRβ-LBD protein (SEQ ID NO:4). The reaction was mixed thoroughly, equilibrated for 1 h at 4° C. and vicinity of LXRβ and coactivator peptide was detected by measurement of fluorescence in a VictorX4 multiplate reader (PerkinElmer Life Science) using 340 nm as excitation and 615 and 665 nm as emission wavelengths. Assays were performed in triplicates.
240 mM KCl, 1 μg/μL BSA, 0.002% Triton-X-100, […] anti GST-Tb cryptate, 2.5 ng/μL Streptavidin-XL665, coactivator peptide (400 nM), LXRβ protein (530 μg/mL, i.e. 76 nM).

The target of another test is T2, LXRβ (Homo sapiens, UniProt P55055).
T2 sequence (P55055 1-460): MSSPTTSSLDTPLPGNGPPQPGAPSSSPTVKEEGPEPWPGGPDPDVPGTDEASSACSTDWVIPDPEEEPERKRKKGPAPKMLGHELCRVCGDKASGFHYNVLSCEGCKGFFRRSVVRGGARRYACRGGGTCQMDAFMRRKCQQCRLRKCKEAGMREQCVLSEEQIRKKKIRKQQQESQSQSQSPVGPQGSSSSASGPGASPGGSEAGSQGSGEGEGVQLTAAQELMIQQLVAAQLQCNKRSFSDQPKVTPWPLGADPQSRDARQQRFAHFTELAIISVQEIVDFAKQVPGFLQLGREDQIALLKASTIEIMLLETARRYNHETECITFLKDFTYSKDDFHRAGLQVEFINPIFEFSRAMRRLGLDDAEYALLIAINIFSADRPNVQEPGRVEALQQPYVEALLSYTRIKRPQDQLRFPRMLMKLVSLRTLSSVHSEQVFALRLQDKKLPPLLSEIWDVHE
The test can be described thus: LXR Gal4 reporter transient transfection assay (mammalian two-hybrid, HEK293), LXRβ. In kind it is cell-based. Further details: LXRβ (amino acids 156-461); expressed in transfected cells; host or cells: HEK293. The settings on record: full length (FL) LXRβ, HEK293; read-out: FL-M2H Gal4β. The protocol: LXRα and LXRβ activity status was determined via detection of interaction with coactivator and corepressor proteins in mammalian two-hybrid experiments (M2H). For this, via transient transfection the full length (FL) proteins of LXRα (amino acids 1-447; NP005684; SEQ ID NO:1) or LXRβ-(amino acids 1-461; NP009052; SEQ ID NO:2) or the ligand-binding domains (LBD) of LXRα (amino acids 155-447 SEQ ID NO:3) or LXRβ (amino acids 156-461; SEQ ID NO:4) were expressed from pCMV-AD (Stratagene) as fusions to the transcriptional activation domain of NFkB. As cofactors, domains of either the steroid receptor coactivator 1 (SRC1; amino acids 552-887; SEQ ID NO:5) or of the corepressor NCoR (amino acids 1906-2312; NP006302; SEQ ID NO:6) were expressed as fusions to the DNA binding domain of the yeast transcription factor GAL4 (from pCMV-BD; Stratagene). Interaction was monitored via activation of a coexpressed Firefly Luciferase Reporter gene under control of a promoter containing repetitive GAL4 response elements (vector pFRLuc; Stratagene). Transfection efficiency was controlled via cotransfection of constitutively active pRL-CMV Renilla reniformis luciferase reporter (Promega). HEK293 cells were grown in minimum essential medium (MEM) with 2 mM L-glutamine and Earle's balanced salt solution supplemented with 8.3% fetal bovine serum, 0.1 mM non-essential amino acids, 1 mM sodium pyruvate, at 37° C. in 5% CO2. 3.5×10^4 cells/well were plated in 96-well cell culture plates in growth medium supplemented with 8.3% fetal bovine serum for 16-20 h to ˜90% confluency. For transfection, medium was taken off and LXR and cofactor expressing plasmids as well as the reporter plasmids are added in 30 μL OPTIMEM/well including polyethylene-imine (PEI) as vehicle. Typical amounts of plasmids transfected/well: pCMV-AD-LXR (5 ng), pCMV-BD-cofactor (5 ng), pFR-Luc (100 ng), pRL-CMV (0.5 ng). Compound stocks were prepared in DMSO, prediluted in MEM to a total volume of 120 μL, and added 4 h after addition of the transfection mixture (final vehicle concentration not exceeding 0.2%). Cells were incubated for additional 16 h, lysed for 10 min in 1×Passive Lysis Buffer (Promega) and Firefly and Renilla luciferase activities were measured sequentially in the same cell extract using buffers containing D-luciferine and coelenterazine, respectively. Measurements of luminescence were done in a BMG-luminometer.
The potencies of Compound 21/3 and its analog, Compound pre-6/3, against LXRα and LXRβ were evaluated in biochemical binding assays, cellular mammalian two-hybrid (M2H) interaction assays evaluating nuclear receptor co-repressor (NCOR) recruitment, and cellular reporter assays evaluating transcriptional activity (Table 5).

As for `Cc1ccc(S(=O)(=O)n2c(-c3cccc(N4CC(C(=O)O)C4)c3)c(-c3ccsc3C(=O)N(C)C)c3cc(F)ccc32)cc1` [3/28], the EC50 is above 10000 nM in test [1] and 1000 to 10000 nM on LXRβ.

Turning to `N#Cc1ccccc1-c1c(-c2cccc(-c3ccc(C(=O)O)cc3Cl)c2)n(S(=O)(=O)c2ccc(C(F)F)cc2)c2cccnc12` [8/7], the EC50 in test [1] was 100 to 1000 nM; at LXRβ, below 100 nM.

As for `N#Cc1cncc(C#N)c1-c1c(-c2cccc(-c3ccc(C(=O)O)cc3Cl)c2)n(S(=O)(=O)c2ccc(C(F)F)cc2)c2ccc(F)cc12` [11/67], the EC50 in test [1] was 100 to 1000 nM; on LXRβ it was below 100 nM.

Regarding `N#Cc1ccncc1-c1c(-c2cccc(-c3cc(F)c(C(=O)O)cc3Cl)c2)n(S(=O)(=O)c2ccc(C(F)F)cc2)c2ccc(F)cc12` [11/10], the EC50 (in test [1]; on LXRβ) was below 100 nM in each case.

Turning to `CN1CC(F)(c2ccccc2-c2c(-c3cccc(-c4ccc(C(=O)O)cc4Cl)c3)n(S(=O)(=O)c3ccc(C(F)F)cc3)c3ccc(F)cc23)C1` [3/62], the EC50 in test [1] is 100 to 1000 nM; at LXRβ, below 100 nM.

In the case of `Cc1ccc(S(=O)(=O)n2c(-c3cccc(N4CCC(C(=O)O)CC4)c3)c(-c3ccsc3C#N)c3cc(F)ccc32)cc1` [3/38], the EC50 is 100 to 1000 nM in test [1] and below 100 nM on LXRβ.

With `N#Cc1cccc(C#N)c1-c1c(-c2cccc(-c3c(F)cc(OCC(=O)O)cc3F)c2)n(S(=O)(=O)c2ccc(C(F)F)cc2)c2ccc(F)cc12` [3/71], the EC50 (in test [1]; at LXRβ) was below 100 nM each time.

On to `Cc1ccc(S(=O)(=O)n2c(-c3cccc(N4CC(C)(C(=O)O)C4)c3)c(-c3ccsc3C#N)c3cc(F)ccc32)cc1` [3/37], for which the values for the EC50 (in test [1]; at LXRβ) were 100 to 1000 nM and below 100 nM, respectively.

`CC(O)(C(=O)O)c1ccc(-c2cccc(-c3c(-c4c(C#N)cccc4C#N)c4cc(F)ccc4n3S(=O)(=O)c3ccc(C(F)F)cc3)c2)cc1` (stereo not shown) [11/59]: the EC50 (in test [1]; on LXRβ) was below 100 nM in each case.

In the case of `N#Cc1sccc1-c1c(-c2cccc(N3CC(C(=O)O)C3)c2)n(S(=O)(=O)c2ccc(C(F)F)cc2)c2ccc(F)cc12` [3/35], the figures for the EC50 (in test [1]; on LXRβ) were 100 to 1000 nM and below 100 nM, respectively.

For `Cc1ccc(S(=O)(=O)n2c(-c3cccc(N4CC(C(=O)NC(C)(C)C(=O)O)C4)c3)c(-c3ccsc3C#N)c3cc(F)ccc32)cc1` [3/52], the EC50 (in test [1]; on LXRβ) was 100 to 1000 nM in each case.

Regarding `COc1cc(-c2c(-c3cccc(-c4ccc(C(=O)O)cc4Cl)c3)n(S(=O)(=O)c3ccc(C(F)F)cc3)c3ccc(F)cc23)c2c(C#N)cnn2c1` [11/46], the EC50 (in test [1]; at LXRβ) was below 100 nM throughout.

`N#Cc1sccc1-c1c(-c2cccc(N3CC(C(=O)O)C3)c2)n(S(=O)(=O)c2ccc(C(F)(F)F)cc2)c2ccc(F)cc12` [3/34]: the EC50 in test [1] was 100 to 1000 nM; at LXRβ, below 100 nM.

Take `Cc1ccc(S(=O)(=O)n2c(-c3cccc(-c4ccc(C(=O)O)c(F)c4Cl)c3)c(-c3ccsc3C#N)c3cc(F)ccc32)cc1` [12/3]: the results for the EC50 (in test [1]; at LXRβ) were 100 to 1000 nM and below 100 nM, respectively.

For `COc1cc(-c2cccc(-c3c(-c4ccsc4C#N)c4cc(F)ccc4n3S(=O)(=O)c3ccc(C)cc3)c2)c(Cl)cc1C(=O)O` [12/4], the results for the EC50 (in test [1]; at LXRβ) were 100 to 1000 nM and below 100 nM, respectively.

Turning to `Cc1ccc(S(=O)(=O)n2c(-c3cccc(N4CCC(C)(C(=O)O)CC4)c3)c(-c3ccsc3C#N)c3cc(F)ccc32)cc1` [3/50], the EC50 in test [1] was 100 to 1000 nM; at LXRβ it was below 100 nM.

In the case of `N#Cc1scnc1-c1c(-c2cccc(-c3cc(F)c(C(=O)O)cc3Cl)c2)n(S(=O)(=O)c2ccc(C(F)F)cc2)c2ccc(F)cc12` [11/9], the EC50 (in test [1]; at LXRβ) was below 100 nM each time.

As for `Cc1ccc(S(=O)(=O)n2c(-c3cc(N4CC(C(=O)O)C4)ccc3Cl)c(-c3ccsc3C#N)c3cc(F)ccc32)cc1` [3/40], the EC50 is 1000 to 10000 nM in test [1] and below 100 nM on LXRβ.

`Cc1ccc(S(=O)(=O)n2c(-c3cccc(N4CC(C(=O)O)C4)c3)c(-c3ccoc3C#N)c3cc(F)ccc32)cc1` [3/26]: the values for the EC50 (in test [1]; on LXRβ) were 1000 to 10000 nM and below 100 nM, respectively.

For `O=C(O)c1ccc(-c2cccc(-c3c(-c4ncccc4OC(F)F)c4cc(F)ccc4n3S(=O)(=O)c3ccc(C(F)F)cc3)c2)c(Cl)c1` [11/41], the EC50 (in test [1]; on LXRβ) was below 100 nM in each case.

For `Cc1cc(S(=O)(=O)n2c(-c3cccc(-c4ccc(C(=O)O)cc4Cl)c3)c(-c3ccsc3C#N)c3cc(F)ccc32)ccc1F` [3/23], the EC50 was 100 to 1000 nM in test [1] and below 100 nM on LXRβ.

As for `COCc1sccc1-c1c(-c2cccc(N3CC(C(=O)O)C3)c2)n(S(=O)(=O)c2ccc(C)cc2)c2ccc(F)cc12` [3/6], the results for the EC50 (in test [1]; on LXRβ) were 1000 to 10000 nM and 100 to 1000 nM, respectively.

As to `Cc1ccc(S(=O)(=O)n2c(-c3cccc(C4(C)CC4C(=O)O)c3)c(-c3ccsc3C#N)c3cc(F)ccc32)cc1` (stereo not shown) [3/1], the EC50 (in test [1]; at LXRβ) was 100 to 1000 nM each time.

Consider `Cc1ccc(S(=O)(=O)n2c(-c3cccc(-c4cc(F)c(C(=O)O)cc4Cl)c3)c(-c3ccsc3C#N)c3cc(F)ccc32)cc1` [12/2], for which the results for the EC50 (in test [1]; on LXRβ) were 100 to 1000 nM and below 100 nM, respectively.

Take `Cc1ccc(S(=O)(=O)n2c(-c3cccc(N4CC(C(=O)O)C4)c3)c(-c3ccsc3C(F)F)c3cc(F)ccc32)cc1` [3/4]: the EC50 in test [1] is 100 to 1000 nM; at LXRβ, below 100 nM.

Consider `O=C(O)c1ccc(-c2cccc(-c3c(-c4cccc5nncn45)c4cc(F)ccc4n3S(=O)(=O)c3ccc(C(F)F)cc3)c2)c(Cl)c1` [11/43], for which the EC50 (in test [1]; on LXRβ) was 100 to 1000 nM in each case.
